In publication PMC10879502, “Linking ATP and allosteric sites to achieve superadditive binding with bivalent EGFR kinase inhibitors” (Communications Chemistry, 2024):
Where “and” joins values, the source holds several entries; their conditions need not be identical. Identical values can stand only once. Like-named read-outs stand apart in the source and are kept apart here. Blank lines part the entries; values can stand above or below the compound they belong to.

Legend:
[1] = target: T1, EGFR L858R/T790M/C797S (LRTMCS) kinase domain (Homo sapiens, UniProt P00533, C797S/L858R/T790M); assay: HTRF KinEASE-TK kinase activity assay; type: biochemical
T1 construct: The EGFR kinase domain (residues 696–1022) was cloned into pTriEx; 6xHis (N, cleaved yes); GST (N, cleaved yes); made in house; host or cells: SF9 insect cells, baculovirus

[2] = system: Ba/F3 cells, L858R EGFR; assay: Ba/F3 resazurin antiproliferative assay; type: cell-based; settings: Mus musculus, BaF3, 72 h, Ba/F3, 72 h; read-out: EGFR EC50, LR
Description: (§1) H1975 and HCC827 cells were obtained from the lab of Dr. Pasi Jänne (Dana-Farber Cancer Institute, 2022) cultured at 37 °C in RPMI 1640 media (Corning, 1004-CV) supplemented with 10% fetal bovine serum (Tissue Culture Biologicals, 35-010-CV) and 1% penicillin and streptomycin (P/S, Corning, 30-002-CI) and seeded overnight in a 96-well plate at a density of 60000 cells/mL. Cells were dosed with inhibitors to a final DMSO 0.5% in triplicate for 37 °C for 72 h. Cellular inhibition of growth was assessed by MTT viability assay according to the manufactures protocol (OZ Biosciences). Parental Ba/F3 cells was a generous gift from the laboratory of Dr. David Weinstock (in 2014), Dr. Pasi Jänne (2020) both of the Dana-Farber Cancer Institute and was used to generate the wildtype EGFR, L858R, and L858R/T790M EGFR mutant Ba/F3 cells[52],[67]. Ba/F3 cells were all cultured in RPMI1640 media with 10% fetal bovine serum and 1% penicillin and streptomycin. The Ba/F3 cell lines were tested negative for Mycoplasma using Mycoplasma Plus PCR Primer Set (Agilent) and were passaged and/or used for no longer than 4 weeks for all experiments. Assay reagents were purchased from MilliporeSigma (Cat# R7017-5G). Ba/F3 cells were plated and treated with increasing concentrations of inhibitors in triplicate for 72 h. Compounds were dispensed using the Tecan D300e Digital Dispenser. […] All experiments were repeated at least 3 times and values were reported as an average with standard deviation.

[3] = system: Ba/F3 cells, L858R/T790M EGFR; assay: Ba/F3 resazurin antiproliferative assay; type: cell-based; settings: Mus musculus, BaF3; Ba/F3, 72 h; read-out: EGFR EC50, LR/TM
Description: as §1

[4] = system: Ba/F3 cells, LR/TM/CS EGFR; assay: Ba/F3 resazurin antiproliferative assay; type: cell-based; settings: Mus musculus, BaF3; Ba/F3, 72 h
Description: as §1

[5] = system: Ba/F3 cells, wildtype EGFR; assay: Ba/F3 resazurin antiproliferative assay; type: cell-based; settings: Mus musculus, BaF3; Ba/F3, 72 h; read-out: EGFR EC50, wt
Description: as §1

[6] = system: EGFR phosphorylation (pY1068) in H1975 cells; assay: Western blot; type: cell-based, human
Description: H1975, H3255, H3255GR and HCC827 lung adenocarcinoma cells (obtained from Dr. Pasi Jänne in Dana-Farber Cancer Institute, 2022) were cultured in RPMI 1640 media (Corning, 1004-CV) supplemented with 10% FBS (Tissue Culture Biologicals, 35-010-CV) and 1% penicillin-streptomycin (P/S, Corning, 30-002-CI). All cell lines were tested negative for Mycoplasma using Myco-Sniff-Rapid™ Mycoplasma Luciferase Detection Kit Plus PCR Primer Set (MP biomedicals, 0930504-CF) and were passaged and/or used for no longer than 4 weeks for all experiments H1975 and HCC-827 cells were seeded in 6-well plates with 400,000 cells per well and incubated overnight. H3255 and H3255GR cells were seeded in 12-well plates with 200,000 cells per well and were grown to confluency after 48 h. Culture medium was removed, cells washed with PBS, and lysed with lysis buffer containing 5 M NaCl, 1 M TRIS pH 8.0, 10% SDS, 10% Triton X-100 and a tablet of protease and phosphatase inhibitor. Protein lysate concentration was analyzed using Pierce BCA kit (ThermoFisher, 23225). Protein samples (10 µg) were resolved on hand-cast Criterion Tris-HCl protein gels. Primary antibodies used; phospho-EGFR (Tyr1068; #2234, 1:1,000), EGFR (#4267; 1:1,000), phospho-AKT (Ser473; #4060, 1:1,000), AKT (#9272, 1:1,000), phospho-ERK1/2 (Thr202/Tyr204; #4370, 1:1,000), and ERK1/2 (#4695, 1:1,000) antibodies; were purchased from Cell Signaling Technology. Secondary Goat anti-rabbit IgG starbright blue 700 (Biorad, 64484700) and Anti-tubulin hFAB Rhodamine Tubulin (Bio-Rad, 64512248). Western blots were visualized with the ChemiDoc MP imager (Bio-Rad) utilizing the Image Lab Touch Software (version 2.4.0.03). All Western blot images are representatives of at least 3 independent replicate experiments.

[7] = target: CDKL3 (Homo sapiens, UniProt Q8IVW4); assay: KINOMEscan; type: binding; settings: 1 μM
Chain of CDKL3 (Q8IVW4 whole entry): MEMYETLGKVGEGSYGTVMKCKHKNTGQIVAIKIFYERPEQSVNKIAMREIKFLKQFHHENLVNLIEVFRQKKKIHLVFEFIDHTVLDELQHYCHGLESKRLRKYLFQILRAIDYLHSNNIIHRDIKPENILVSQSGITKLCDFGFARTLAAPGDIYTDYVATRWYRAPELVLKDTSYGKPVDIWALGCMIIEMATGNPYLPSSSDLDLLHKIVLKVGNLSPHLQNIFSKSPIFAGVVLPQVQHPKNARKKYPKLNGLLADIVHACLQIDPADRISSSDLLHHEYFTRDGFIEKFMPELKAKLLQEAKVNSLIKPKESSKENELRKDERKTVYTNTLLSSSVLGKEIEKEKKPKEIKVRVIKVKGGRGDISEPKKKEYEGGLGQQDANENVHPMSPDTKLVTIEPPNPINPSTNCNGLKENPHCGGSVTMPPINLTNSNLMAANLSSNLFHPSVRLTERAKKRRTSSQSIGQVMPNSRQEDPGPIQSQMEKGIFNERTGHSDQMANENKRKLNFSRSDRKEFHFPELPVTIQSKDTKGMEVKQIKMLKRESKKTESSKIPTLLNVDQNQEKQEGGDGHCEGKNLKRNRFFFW

[8] = target: CLK2 (Homo sapiens, UniProt P49760); assay: KINOMEscan; type: binding; settings: 1 μM
Chain of CLK2 (P49760 whole entry): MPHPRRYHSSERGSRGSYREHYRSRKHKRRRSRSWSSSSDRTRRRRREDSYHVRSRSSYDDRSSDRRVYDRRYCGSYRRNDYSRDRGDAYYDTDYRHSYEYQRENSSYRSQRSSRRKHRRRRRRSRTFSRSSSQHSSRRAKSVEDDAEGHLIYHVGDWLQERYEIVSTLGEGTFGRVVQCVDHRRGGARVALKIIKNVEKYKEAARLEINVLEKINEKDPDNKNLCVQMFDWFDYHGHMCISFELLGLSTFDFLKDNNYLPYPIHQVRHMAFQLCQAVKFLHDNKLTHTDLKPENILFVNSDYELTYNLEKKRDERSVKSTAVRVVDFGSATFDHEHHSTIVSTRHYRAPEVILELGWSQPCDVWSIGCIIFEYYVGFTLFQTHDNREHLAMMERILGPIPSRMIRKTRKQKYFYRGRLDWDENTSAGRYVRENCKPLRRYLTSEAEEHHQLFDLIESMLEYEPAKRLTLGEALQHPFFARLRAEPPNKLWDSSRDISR

[9] = target: T2, DYRK1B (Homo sapiens, UniProt Q9Y463); assay: KINOMEscan; type: binding; settings: 1 μM
T2 construct: purchased Eurofins DiscoverX Corporation

[10] = target: EPHB1 (Homo sapiens, UniProt P54762); assay: KINOMEscan; type: binding; settings: 1 μM
Chain of EPHB1 (P54762 18-984): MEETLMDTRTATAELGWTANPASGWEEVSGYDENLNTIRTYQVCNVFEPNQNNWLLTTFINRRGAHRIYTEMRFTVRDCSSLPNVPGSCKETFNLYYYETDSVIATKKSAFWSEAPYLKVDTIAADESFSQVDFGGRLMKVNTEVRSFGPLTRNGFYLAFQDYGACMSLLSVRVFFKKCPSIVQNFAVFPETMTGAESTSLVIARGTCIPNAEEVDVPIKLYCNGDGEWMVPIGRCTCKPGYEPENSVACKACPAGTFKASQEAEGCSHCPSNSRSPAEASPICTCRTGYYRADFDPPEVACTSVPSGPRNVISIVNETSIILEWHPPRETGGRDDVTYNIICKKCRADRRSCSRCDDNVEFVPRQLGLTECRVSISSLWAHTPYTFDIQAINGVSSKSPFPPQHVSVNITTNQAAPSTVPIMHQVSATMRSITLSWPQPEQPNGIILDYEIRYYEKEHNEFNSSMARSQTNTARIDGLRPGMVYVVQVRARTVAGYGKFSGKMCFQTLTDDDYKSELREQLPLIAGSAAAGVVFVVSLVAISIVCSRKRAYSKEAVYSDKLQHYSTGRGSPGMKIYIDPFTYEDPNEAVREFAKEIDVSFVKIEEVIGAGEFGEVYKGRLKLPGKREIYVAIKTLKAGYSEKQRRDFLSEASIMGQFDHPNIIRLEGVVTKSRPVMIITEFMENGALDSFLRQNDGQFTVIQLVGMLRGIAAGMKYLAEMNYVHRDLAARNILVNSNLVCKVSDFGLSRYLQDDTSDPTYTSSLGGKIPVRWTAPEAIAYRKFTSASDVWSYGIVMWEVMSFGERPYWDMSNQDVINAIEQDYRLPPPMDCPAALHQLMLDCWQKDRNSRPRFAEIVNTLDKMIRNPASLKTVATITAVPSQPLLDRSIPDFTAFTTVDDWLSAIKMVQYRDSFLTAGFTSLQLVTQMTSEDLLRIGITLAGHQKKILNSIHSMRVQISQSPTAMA

[11] = system: FLT3(ITD); assay: KINOMEscan; type: binding; settings: 1 μM
[12] = target: T3, LATS2 (Homo sapiens, UniProt Q9NRM7); assay: KINOMEscan; type: binding; settings: 1 μM
T3 construct: purchased Eurofins DiscoverX Corporation

[13] = target: T4, MARK4 (Homo sapiens, UniProt Q96L34); assay: KINOMEscan; type: binding; settings: 1 μM
T4 construct: purchased Eurofins DiscoverX Corporation
T4 sequence (Q96L34 whole entry): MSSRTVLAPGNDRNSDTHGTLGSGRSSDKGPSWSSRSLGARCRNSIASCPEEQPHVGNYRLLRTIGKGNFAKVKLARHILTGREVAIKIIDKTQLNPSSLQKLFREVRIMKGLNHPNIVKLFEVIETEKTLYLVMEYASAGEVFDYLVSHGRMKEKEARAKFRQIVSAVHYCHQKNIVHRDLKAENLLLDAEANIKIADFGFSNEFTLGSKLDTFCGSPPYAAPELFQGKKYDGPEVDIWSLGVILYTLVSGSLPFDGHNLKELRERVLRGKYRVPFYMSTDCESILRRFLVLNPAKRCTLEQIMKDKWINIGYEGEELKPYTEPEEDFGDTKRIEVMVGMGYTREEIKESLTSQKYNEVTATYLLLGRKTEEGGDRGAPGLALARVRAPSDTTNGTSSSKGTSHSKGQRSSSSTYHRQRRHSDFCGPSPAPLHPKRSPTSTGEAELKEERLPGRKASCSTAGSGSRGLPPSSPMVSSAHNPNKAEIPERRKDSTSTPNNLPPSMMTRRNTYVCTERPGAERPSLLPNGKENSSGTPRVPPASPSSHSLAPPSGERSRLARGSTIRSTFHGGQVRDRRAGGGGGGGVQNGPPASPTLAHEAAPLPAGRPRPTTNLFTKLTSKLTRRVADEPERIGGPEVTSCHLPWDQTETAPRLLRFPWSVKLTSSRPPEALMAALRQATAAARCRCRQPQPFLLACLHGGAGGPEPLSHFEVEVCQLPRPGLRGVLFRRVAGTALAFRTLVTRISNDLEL

[14] = target: T5, MTOR (Homo sapiens, UniProt P42345); assay: KINOMEscan; type: binding; settings: 1 μM
T5 construct: purchased Eurofins DiscoverX Corporation

[15] = target: PAK2 (Homo sapiens, UniProt Q13177); assay: KINOMEscan; type: binding; settings: 1 μM
Chain of PAK2 (Q13177 whole entry): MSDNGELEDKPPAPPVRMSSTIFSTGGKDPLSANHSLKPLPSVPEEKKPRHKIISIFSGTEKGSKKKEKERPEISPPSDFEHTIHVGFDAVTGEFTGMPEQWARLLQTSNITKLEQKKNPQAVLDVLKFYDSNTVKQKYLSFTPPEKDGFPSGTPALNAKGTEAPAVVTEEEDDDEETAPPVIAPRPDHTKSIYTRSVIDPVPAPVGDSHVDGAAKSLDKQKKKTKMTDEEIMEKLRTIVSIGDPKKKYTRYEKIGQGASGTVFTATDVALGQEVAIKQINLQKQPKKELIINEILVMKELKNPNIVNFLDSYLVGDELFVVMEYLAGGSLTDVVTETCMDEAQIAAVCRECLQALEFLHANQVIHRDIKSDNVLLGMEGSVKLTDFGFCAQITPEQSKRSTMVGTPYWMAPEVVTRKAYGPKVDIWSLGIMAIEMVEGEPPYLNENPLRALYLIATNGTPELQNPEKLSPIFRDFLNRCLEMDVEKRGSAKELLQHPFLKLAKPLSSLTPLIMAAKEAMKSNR

[16] = target: PDPK1 (Homo sapiens, UniProt O15530); assay: KINOMEscan; type: binding; settings: 1 μM
Chain of PDPK1 (O15530 whole entry): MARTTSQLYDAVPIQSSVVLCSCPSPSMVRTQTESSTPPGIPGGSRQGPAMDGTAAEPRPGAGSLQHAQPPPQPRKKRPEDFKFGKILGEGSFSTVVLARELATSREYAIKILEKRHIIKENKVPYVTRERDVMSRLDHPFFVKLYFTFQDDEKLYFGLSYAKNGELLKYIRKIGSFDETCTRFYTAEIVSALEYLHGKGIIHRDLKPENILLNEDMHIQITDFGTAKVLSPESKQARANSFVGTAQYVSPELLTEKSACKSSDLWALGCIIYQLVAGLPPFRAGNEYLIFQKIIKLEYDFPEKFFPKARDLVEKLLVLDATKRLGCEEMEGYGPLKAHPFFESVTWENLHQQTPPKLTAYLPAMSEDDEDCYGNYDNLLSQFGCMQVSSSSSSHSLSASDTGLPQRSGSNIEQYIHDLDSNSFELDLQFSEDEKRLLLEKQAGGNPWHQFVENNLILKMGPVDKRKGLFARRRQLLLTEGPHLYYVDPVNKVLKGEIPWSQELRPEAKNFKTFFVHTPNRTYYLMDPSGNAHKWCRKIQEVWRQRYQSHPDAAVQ

[17] = target: T6, TAOK2 (Homo sapiens, UniProt Q9UL54); assay: KINOMEscan; type: binding; settings: 1 μM
T6 construct: purchased Eurofins DiscoverX Corporation

[18] = target: T7, TRKA (Homo sapiens, UniProt P04629); assay: KINOMEscan; type: binding; settings: 1 μM
T7 construct: purchased Eurofins DiscoverX Corporation
T7 sequence (P04629 33-796): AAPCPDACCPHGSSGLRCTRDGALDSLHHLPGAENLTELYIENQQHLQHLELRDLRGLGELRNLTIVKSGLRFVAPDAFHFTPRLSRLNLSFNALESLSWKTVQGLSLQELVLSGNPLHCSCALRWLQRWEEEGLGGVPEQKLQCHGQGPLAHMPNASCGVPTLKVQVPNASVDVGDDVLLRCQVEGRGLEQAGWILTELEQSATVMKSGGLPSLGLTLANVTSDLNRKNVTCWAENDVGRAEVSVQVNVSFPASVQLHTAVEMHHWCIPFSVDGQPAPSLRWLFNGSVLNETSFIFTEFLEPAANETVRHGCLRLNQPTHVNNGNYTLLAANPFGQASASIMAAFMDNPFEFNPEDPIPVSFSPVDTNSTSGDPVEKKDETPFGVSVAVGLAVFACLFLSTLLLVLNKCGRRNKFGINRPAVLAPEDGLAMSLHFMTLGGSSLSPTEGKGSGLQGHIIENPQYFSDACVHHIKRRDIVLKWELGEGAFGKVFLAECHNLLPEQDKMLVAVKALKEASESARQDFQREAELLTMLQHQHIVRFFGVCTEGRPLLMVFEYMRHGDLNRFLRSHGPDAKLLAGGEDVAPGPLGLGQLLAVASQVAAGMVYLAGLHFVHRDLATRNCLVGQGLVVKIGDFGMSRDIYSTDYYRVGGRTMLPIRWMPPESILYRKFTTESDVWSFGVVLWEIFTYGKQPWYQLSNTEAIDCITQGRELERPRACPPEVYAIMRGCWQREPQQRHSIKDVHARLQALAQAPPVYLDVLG

[19] = enzyme 0.02 nM, ATP 100 µM, read-out: Biochemical EGFR IC50, LRTMCS

activity ([1]; LRTMCS, [Inhibitor] 1.3e-5 nM, read-out: percent inhibition): 93.5% and 92.2% and 100% | activity ([1]; LRTMCS, [Inhibitor] 3.18e-5 nM, read-out: percent inhibition): 90.3% (2×) and 95.9% | activity ([1]; LRTMCS, [Inhibitor] 7.78e-5 nM, read-out: percent inhibition): 71% and 67.2% and 70.8% | activity at 190.4 fM ([1]; LRTMCS, [Inhibitor] 0.000190441 nM, read-out: percent inhibition): 39.1% | activity at 466 fM ([1]; LRTMCS, [Inhibitor] 0.000465979 nM, read-out: percent inhibition): 22.7% | activity at 1.14 pM ([1]; LRTMCS, [Inhibitor] 0.00114018 nM, read-out: percent inhibition): 13.5% | activity at 2.79 pM ([1]; LRTMCS, [Inhibitor] 0.00278983 nM, read-out: percent inhibition): 8.55% | activity at 6.826 pM ([1]; LRTMCS, [Inhibitor] 0.00682626 nM, read-out: percent inhibition): 4.28% | activity at 16.7 pM ([1]; LRTMCS, [Inhibitor] 0.0167028 nM, read-out: percent inhibition): 1.88% | IC50 [1, 19]: 0.064 ± 0.004 nM | IC50 ([1]; read-out: IC50, LRTMCS): 0.051 to 0.064 nM | EC50 [2]: 5300 nM | EC50 [3]: > 10000 nM | EC50 [4]: 6500 nM | EC50 [5]: 5100 nM
Structure (SMILES): CSc1nc(-c2cccc(NC(=O)c3cccc4c3NC(=O)c3ccccc3N4)c2)c(-c2ccnc(NC(C)=O)c2)[nH]1 [Compound 2]
suppression of EGFR phosphorylation ([6]; H1975, 6 h): also effective in H1975 cells, however to a lesser extent than 4

Structure (SMILES): C=CC(=O)Nc1ccc(OC)c(Nc2cc(-c3[nH]c(CC)nc3-c3cccc(NC(=O)c4cccc5c4NC(=O)c4ccccc4N5)c3)ccn2)c1 [Compound 4]
IC50 [1, 19]: 1.8 ± 0.3 nM | IC50 improvement over orthosteric-only 7, LRTMCS ([1]; reversible inhibition): 100 fold | EC50 [2]: 220 nM | EC50 [3]: 770 nM | EC50 [4]: > 10000 nM | EC50 [5]: 950 nM | concentration suppressing LRTM phosphorylation (pY1068), pERK and pAKT ([6]; H1975, dosed for 6 h): below 1 µM | POC [7]: 100% of control | POC [8]: 63% of control | POC [9]: 88% of control | POC [10]: 92% of control | POC [11]: 100% of control | POC [12]: 62% of control | POC [13]: 92% of control | POC [14]: 100% of control | POC [15]: 100% of control | POC [16]: 84% of control | POC [17]: 100% of control | POC [18]: 77% of control
